# Where “and” joins values, the source holds several entries; their conditions need not be identical. Equal values may be shown once. Ends that are not written are not given here.
# Assays:
# [1] = Calcein dye leakage assay from LUVs; assay type: biochemical; settings: P:L 1:100; pH 7.4
# Outline: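 POPC:POPG (1:1) LUVs, extruded at 100 nm, loaded with 35 mM self-quenching calcein; free dye removed. Peptide 0.1 mM and LUVs 0.02 mM in PBS with 100 mM NaCl, P:L 1:100 to 1:10. Fluorescence at 495/520 nm, normalized to 100% leakage by 10% Triton X-100.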
# S. carnosus (CCM 4838T) = experiment: microbe, parasite or virus in culture; assay type: cell-based, Staphylococcus carnosus; settings: CCM 4838, 24 h; read-out: Antimicrobial activity (MIC) S. carnosus (CCM 4838T)
# Outline: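 Bacteria were grown on MHA for 24 h, subcultured in MHB for 6 h at 37 °C and diluted to 10^6 CFU/mL. Compounds were serially diluted from 50 to 0.1 μM, inoculated and incubated for 24 h at 37 °C. MIC was the lowest concentration with no visible turbidity.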
# [2] = test system: A. baumannii (ATCC 19606); experiment: Neutropenic murine deep thigh infection model; assay type: in vivo, mouse; settings: single intraperitoneal dose at 10 times the MIC; four days after treatment
# Text: Mice were euthanized 4 days postinfection (day 8).
# Each experimental group comprised three mice.
# [3] = test system: cytoplasmic membranes of ESKAPEE pathogens; experiment: Cytoplasmic membrane depolarization assay, DiSC3-(5); assay type: cell-based; settings: both Gram-negative and Gram-positive bacteria; peptides at their MICs
# Method: First, we investigated the ability of the peptides to depolarize the cytoplasmic membranes of ESKAPEE pathogens. […] Bacteria were incubated with 3,3′-dipropylthiadicarbocyanine iodide [DiSC3-(5)] dye, and the dye fluorescence was measured after peptide treatment. DiSC3-(5) is sensitive to transmembrane potential changes. It accumulates in the cytoplasmic membrane with quenched fluorescence, and when the membrane potential becomes unbalanced, the dye molecules translocate to the outside environment, resulting in increased fluorescence.[56] The three potent AMPs (LP1, LP18, and LP28) and the H-variant (LP40) depolarized the cytoplasmic membrane of both Gram-negative and Gram-positive bacteria at their MICs.
# The cytoplasmic membrane depolarization activity of the peptides was determined by measuring the fluorescence of membrane-potential-sensitive dye DiSC3-(5). A. baumannii ATCC 19606, E. coli ATCC 11775, K. pneumoniae ATCC 13883, P. aeruginosa PAO1, S. aureus ATCC 12600, and E. faecium ATCC 700221 were grown to mid log phase (OD600 = 0.5) at 37 °C and then centrifuged (10,000 rpm at 4 °C for 10 min). Cells were washed twice with a buffer containing 20 mM glucose and 5 mM HEPES (pH 7.2) and diluted 1:10 (OD600 = 0.05) in a buffer with 0.1 M KCl, […], and 5 mM HEPES (pH 7.2). Fluorescence was recorded at the excitation and emission wavelengths of 622 and 670 nm, respectively. Bacterial solution (100 μL) was incubated for 15 min with 20 nM of DiSC3-(5) until fluorescence reached a plateau. Changes in transmembrane potential were monitored by observing the difference in fluorescence emission intensity after adding peptides (100 μL at their MICs) for 45 min. Assay was performed in triplicate.
Substance,Calcein leakage (%) from LUVs at P:L 1:100 (mol/mol) [1],MIC (S. carnosus (CCM 4838T)),Reduction of bacterial load [2],Depolarization of the cytoplasmic membrane [3]
KKKKLKKILKKLFQFINQLDNQLQDIKKKK-NH2 [LP18],93.7 ± 3.1%,0.2 µM,did not significantly reduce the bacterial load,depolarized
KKKKLKKILKKLFQFINQLDNQLQDIKQNK-NH2 [LP1],87% and 87.1 ± 2.7%,0.8 µM,two to three orders of magnitude,depolarized
H-HHHHLKKILKKLFQFINQLDNQLQDIHHHH-OH [LP40],102.5 ± 1.2%,> 50 µM,did not significantly reduce the bacterial load,depolarized

# From PMC11345766, “Computational Design of Pore-Forming Peptides with Potent Antimicrobial and Anticancer Activities” (Journal of Medicinal Chemistry, 2024)
